Patent US20260327204A1, “DEGRADERS OF CYCLIN-DEPENDENT KINASE 12/13, COMPOSITIONS, AND USES THEREOF” (ZHEJIANG UNIVERSITY, priority 2023, published 2026)

What was measured:
[1] = biological target: CDK12 (Homo sapiens, UniProt Q9NYV4); assay: Western blot degradation of CDK12 (Example 3); assay type: cell-based; design: degradation of CDK12/13 protein in leukemia cells KASUMI-1, MV4-11, and Jurkat; endogenous in cells; conditions: DC50 classes; cell line not given; read-out: CDK12 degradation Activity
[2] = biological target: CDK13 (Homo sapiens, UniProt Q14004); assay: Western blot degradation of CDK13 (Example 3); assay type: cell-based; design: degradation of CDK12/13 protein in leukemia cells KASUMI-1, MV4-11, and Jurkat; endogenous in cells; conditions: DC50 classes, cell line not given; for DC50: read-out: CDK13 degradation Activity
Sequence of CDK13 (Q14004 whole entry): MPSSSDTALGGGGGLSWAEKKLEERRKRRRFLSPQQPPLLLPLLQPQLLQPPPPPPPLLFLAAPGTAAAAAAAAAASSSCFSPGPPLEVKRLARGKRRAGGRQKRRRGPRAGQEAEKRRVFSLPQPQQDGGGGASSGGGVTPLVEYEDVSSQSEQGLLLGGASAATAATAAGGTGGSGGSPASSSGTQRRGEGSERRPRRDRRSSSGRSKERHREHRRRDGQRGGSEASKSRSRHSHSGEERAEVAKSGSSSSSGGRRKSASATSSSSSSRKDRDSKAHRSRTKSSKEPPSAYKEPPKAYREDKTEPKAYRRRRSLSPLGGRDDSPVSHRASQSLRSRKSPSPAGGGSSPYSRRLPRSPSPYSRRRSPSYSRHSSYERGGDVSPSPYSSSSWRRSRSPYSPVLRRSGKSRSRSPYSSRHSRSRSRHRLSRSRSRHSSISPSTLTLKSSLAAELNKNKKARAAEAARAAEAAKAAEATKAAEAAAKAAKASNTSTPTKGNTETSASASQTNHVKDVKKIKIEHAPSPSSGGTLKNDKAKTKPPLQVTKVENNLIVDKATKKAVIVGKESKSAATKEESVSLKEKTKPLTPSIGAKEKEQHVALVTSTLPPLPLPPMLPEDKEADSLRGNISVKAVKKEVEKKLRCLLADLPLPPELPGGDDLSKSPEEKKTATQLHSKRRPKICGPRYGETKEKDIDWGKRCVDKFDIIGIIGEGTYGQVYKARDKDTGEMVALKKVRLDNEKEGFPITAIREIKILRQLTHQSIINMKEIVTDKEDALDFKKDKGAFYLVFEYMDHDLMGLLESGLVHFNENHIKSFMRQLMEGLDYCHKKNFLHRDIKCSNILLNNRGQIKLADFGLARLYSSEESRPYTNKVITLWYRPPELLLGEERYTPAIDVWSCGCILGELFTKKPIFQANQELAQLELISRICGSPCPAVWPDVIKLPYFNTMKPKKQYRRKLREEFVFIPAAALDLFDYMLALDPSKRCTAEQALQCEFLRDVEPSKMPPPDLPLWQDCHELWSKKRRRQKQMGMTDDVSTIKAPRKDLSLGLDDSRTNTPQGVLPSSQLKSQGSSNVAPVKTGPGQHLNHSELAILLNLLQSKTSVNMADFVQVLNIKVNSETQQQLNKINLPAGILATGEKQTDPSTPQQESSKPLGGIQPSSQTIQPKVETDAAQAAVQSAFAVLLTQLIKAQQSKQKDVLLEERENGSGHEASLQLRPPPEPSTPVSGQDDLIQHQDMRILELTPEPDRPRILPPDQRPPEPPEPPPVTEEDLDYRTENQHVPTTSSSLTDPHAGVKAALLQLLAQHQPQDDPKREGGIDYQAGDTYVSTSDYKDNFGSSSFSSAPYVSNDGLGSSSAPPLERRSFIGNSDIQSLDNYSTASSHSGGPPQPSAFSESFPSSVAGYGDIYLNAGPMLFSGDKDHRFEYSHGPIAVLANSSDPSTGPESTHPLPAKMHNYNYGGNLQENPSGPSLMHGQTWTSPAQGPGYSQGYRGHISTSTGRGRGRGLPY
Sequence of CDK13 (O75909 whole entry partner): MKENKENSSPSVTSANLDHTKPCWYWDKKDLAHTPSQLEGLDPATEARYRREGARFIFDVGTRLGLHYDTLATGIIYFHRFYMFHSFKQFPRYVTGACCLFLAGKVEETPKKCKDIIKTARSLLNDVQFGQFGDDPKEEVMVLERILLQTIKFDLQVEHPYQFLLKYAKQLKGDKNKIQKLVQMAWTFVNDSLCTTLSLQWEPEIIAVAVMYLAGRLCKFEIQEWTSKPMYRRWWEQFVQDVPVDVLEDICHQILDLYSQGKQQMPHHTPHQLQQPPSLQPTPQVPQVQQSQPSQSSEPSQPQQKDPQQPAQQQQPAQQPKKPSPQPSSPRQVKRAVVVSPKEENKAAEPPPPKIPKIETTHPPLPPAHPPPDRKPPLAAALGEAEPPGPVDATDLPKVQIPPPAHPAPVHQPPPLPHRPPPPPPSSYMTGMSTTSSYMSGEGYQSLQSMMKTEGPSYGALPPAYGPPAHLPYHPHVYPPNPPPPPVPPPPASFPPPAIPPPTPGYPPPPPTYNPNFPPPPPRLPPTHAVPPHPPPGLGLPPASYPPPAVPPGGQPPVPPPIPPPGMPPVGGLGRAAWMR

Sequence of CDK12 (Q9NYV4 whole entry): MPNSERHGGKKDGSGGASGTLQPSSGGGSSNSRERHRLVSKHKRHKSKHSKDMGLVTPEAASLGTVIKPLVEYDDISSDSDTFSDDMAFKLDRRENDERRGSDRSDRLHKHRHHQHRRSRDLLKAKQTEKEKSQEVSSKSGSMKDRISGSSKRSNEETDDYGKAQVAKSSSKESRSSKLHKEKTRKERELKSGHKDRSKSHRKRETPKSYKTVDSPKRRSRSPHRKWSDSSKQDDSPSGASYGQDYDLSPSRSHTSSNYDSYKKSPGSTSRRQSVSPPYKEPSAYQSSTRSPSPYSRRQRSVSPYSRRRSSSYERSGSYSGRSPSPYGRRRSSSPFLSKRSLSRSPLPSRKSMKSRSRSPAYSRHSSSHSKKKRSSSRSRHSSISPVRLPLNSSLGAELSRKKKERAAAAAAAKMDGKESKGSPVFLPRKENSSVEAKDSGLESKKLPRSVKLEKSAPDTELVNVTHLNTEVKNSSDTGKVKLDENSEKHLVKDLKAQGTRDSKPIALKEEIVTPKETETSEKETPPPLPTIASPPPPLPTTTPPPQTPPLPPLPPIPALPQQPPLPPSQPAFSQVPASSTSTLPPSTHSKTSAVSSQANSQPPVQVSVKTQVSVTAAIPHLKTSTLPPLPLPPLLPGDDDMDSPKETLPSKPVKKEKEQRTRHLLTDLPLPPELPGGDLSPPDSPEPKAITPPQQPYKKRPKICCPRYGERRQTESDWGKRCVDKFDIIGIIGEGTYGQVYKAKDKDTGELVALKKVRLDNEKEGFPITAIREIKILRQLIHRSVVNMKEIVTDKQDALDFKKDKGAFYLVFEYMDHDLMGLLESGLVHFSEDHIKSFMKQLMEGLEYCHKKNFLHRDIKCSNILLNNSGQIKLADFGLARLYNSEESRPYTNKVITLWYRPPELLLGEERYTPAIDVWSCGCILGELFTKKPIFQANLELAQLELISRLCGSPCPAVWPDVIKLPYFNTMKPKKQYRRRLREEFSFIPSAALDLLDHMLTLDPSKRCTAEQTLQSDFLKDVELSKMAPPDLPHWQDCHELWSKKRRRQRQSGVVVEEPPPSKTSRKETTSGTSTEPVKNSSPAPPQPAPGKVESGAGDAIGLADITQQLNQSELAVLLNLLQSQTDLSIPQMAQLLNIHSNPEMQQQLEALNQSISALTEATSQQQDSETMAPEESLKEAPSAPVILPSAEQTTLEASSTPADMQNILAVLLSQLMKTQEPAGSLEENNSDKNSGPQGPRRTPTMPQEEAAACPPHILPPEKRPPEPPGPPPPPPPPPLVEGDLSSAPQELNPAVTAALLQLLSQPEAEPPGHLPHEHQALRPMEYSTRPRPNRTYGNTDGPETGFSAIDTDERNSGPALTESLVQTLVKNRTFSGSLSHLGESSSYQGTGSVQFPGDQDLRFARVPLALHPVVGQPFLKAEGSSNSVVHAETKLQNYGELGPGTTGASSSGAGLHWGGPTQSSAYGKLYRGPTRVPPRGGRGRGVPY
Sequence of CDK12 (O75909 whole entry partner): as the sequence (O75909 whole entry partner) above

SMILES | DC50 [1] [nM] | DC50 [2] [nM] | CDK13 degradation Activity [2]
CC(=O)N(c1ccc(-c2cnc(N3CCN(c4ccc5c(c4)C(=O)N(C4CCC(=O)NC4=O)C5=O)CC3)nc2)cc1)[C@H]1CC[C@H](Nc2ncc3ccccc3n2)CC1 (stereo partly drawn) [Formula 107] | < 100 | < 100 | 
CC(=O)N(c1ccc(N2CCN(c3ccc4c(c3)C(=O)N(C3CCC(=O)NC3=O)C4=O)CC2)cc1)[C@H]1CC[C@H](Nc2ncc3ccccc3n2)CC1 (stereo partly drawn) [Formula 104, N-(4-(4-(2-(2,6-dioxopiperidin-3-yl)-1,3-dioxoisoindolin-5-yl)piperazin-1-yl)phenyl)-N-((1R,4R)-4-(quinazolin-2-ylamino)cyclohexyl)acetamide] | 3000 to 10000 | 3000 to 10000 | 
CC(=O)N(c1ccc(-c2ccc(N3CCC(C(=O)N[C@H](C(=O)N4C[C@H](O)C[C@H]4C(=O)N[C@@H](C)c4ccc(-c5scnc5C)cc4)C(C)(C)C)CC3)nc2)cc1)[C@H]1CC[C@H](Nc2ncc3ccccc3n2)CC1 [Formula 137, N—((S)-1-((2S,4R)-4-hydroxy-2-(((S)-1-(4-(4-methylthiazol-5-yl)phenyl)ethyl)carbamoyl)pyrrolidin-1-yl)-3,3-dimethyl-1-oxobutan-2-yl)-1-(5-(4-(N-((1R,4R)-4-(quinazolin-2-ylamino)cyclohexyl)acetamido)phenyl)pyridin-2-yl)piperidine-4-carboxamide] | 3000 to 10000 | 3000 to 10000 | 
CC(=O)N(c1ccc(-c2cnc(N3CCN(c4ccc5c(c4)C(=O)N(C4CCC(=O)NC4=O)C5=O)CC3)nc2)cc1)[C@H]1CC[C@H](Nc2ncc3ccccc3n2)CC1 (stereo partly drawn) [Formula 158] | < 100 | < 100 | 
CC(=O)N(c1ccc(-c2cnn(CC3CN(CC(=O)N[C@H](C(=O)N4C[C@H](O)C[C@H]4C(=O)N[C@@H](C)c4ccc(-c5scnc5C)cc4)C(C)(C)C)C3)c2)cc1)[C@H]1CC[C@H](Nc2ncc3ccccc3n2)CC1 (stereo in doubt) [Formula 140, (2S,4R)-1-((R)-3,3-dimethyl-2-(2-(3-((4-(4-(N-((1R,4R)-4-(quinazolin-2-ylamino)cyclohexyl)acetamido)phenyl)-1H-pyrazol-1-yl)methyl)azetidin-1-yl)acetamido)butanoyl)-4-hydroxy-N—((R)-1-(4-(4-methylthiazol-5-yl)phenyl)ethyl)pyrrolidine-2-carboxamide] | 1000 to 3000 | 500 to 1000 | 
CC(=O)N(c1ccc(-c2cnc(N3CCC(C(=O)N[C@H](C(=O)N4C[C@H](O)C[C@H]4C(=O)N[C@@H](C)c4ccc(-c5scnc5C)cc4)C(C)(C)C)CC3)nc2)cc1)[C@H]1CC[C@H](Nc2ncc3ccccc3n2)CC1 [Formula 138, N—((S)-1-((2S,4R)-4-hydroxy-2-(((S)-1-(4-(4-methylthiazol-5-yl)phenyl)ethyl)carbamoyl)pyrrolidin-1-yl)-3,3-dimethyl-1-oxobutan-2-yl)-1-(5-(4-(N-((1R,4R)-4-(quinazolin-2-ylamino)cyclohexyl)acetamido)phenyl)pyrimidin-2-yl)piperidine-4-carboxamide] | 1000 to 3000 |  | −
CC(=O)N(c1ccc(-c2cnn(CC3CN(c4ccc5c(c4)C(=O)N(C4CCC(=O)NC4=O)C5=O)C3)c2)cc1)[C@H]1CC[C@H](Nc2ncc3ccccc3n2)CC1 (stereo partly drawn) [Formula 115, N-(4-(1-((1-(2-(2,6-dioxopiperidin-3-yl)-1,3-dioxoisoindolin-5-yl)azetidin-3-yl)methyl)-1H-pyrazol-4-yl)phenyl)-N-((1R,4R)-4-(quinazolin-2-ylamino)cyclohexyl)acetamide] | 1000 to 3000 | 1000 to 3000 | 

More lines, now with the values ahead:

DC50 [1] [nM] | DC50 [2] [nM] | CDK13 degradation Activity [2] | SMILES
500 to 1000 | 500 to 1000 |  | CC(=O)N(c1ccc(N2CCN(CC3CN(c4ccc5c(c4)C(=O)N(C4CCC(=O)NC4=O)C5=O)C3)CC2)cc1)[C@H]1CC[C@H](Nc2ncc3ccccc3n2)CC1 (stereo partly drawn) [Formula 127, N-(4-(4-((1-(2-(2,6-dioxopiperidin-3-yl)-1,3-dioxoisoindolin-5-yl)azetidin-3-yl)methyl)piperazin-1-yl)phenyl)-N-((1R,4R)-4-(quinazolin-2-ylamino)cyclohexyl)acetamide]
500 to 1000 | 1000 to 3000 |  | CC(=O)N(c1ccc(-c2ccc3c(c2)CCN(CC(=O)N[C@H](C(=O)N2C[C@H](O)C[C@H]2C(=O)N[C@@H](C)c2ccc(-c4scnc4C)cc2)C(C)(C)C)C3)cc1)[C@H]1CC[C@H](Nc2ncc3ccccc3n2)CC1 [Formula 149, (2S,4R)-1-((S)-3,3-dimethyl-2-(2-(6-(4-(N-((1R,4R)-4-(quinazolin-2-ylamino)cyclohexyl)acetamido)phenyl)-3,4-dihydroisoquinolin-2(1H)-yl)acetamido)butanoyl)-4-hydroxy-N—((S)-1-(4-(4-methylthiazol-5-yl)phenyl)ethyl)pyrrolidine-2-carboxamide]
500 to 1000 | 500 to 1000 |  | CC(=O)N(c1ccc(-c2cnc(OCC3CCN(CC(=O)N[C@H](C(=O)N4C[C@H](O)C[C@H]4C(=O)N[C@@H](C)c4ccc(-c5scnc5C)cc4)C(C)(C)C)CC3)nc2)cc1)[C@H]1CC[C@H](Nc2ncc3ccccc3n2)CC1 [Formula 134, (2S,4R)-1-((S)-3,3-dimethyl-2-(2-(4-(((5-(4-(N-((1R,4R)-4-(quinazolin-2-ylamino)cyclohexyl)acetamido)phenyl)pyrimidin-2-yl)oxy)methyl)piperidin-1-yl)acetamido)butanoyl)-4-hydroxy-N—((S)-1-(4-(4-methylthiazol-5-yl)phenyl)ethyl)pyrrolidine-2-carboxamide]
< 100 | 100 to 500 |  | CC(=O)N(c1ccc(-c2cnc(N3C[C@H]4C[C@@H]3CN4CC(=O)N[C@H](C(=O)N3C[C@H](O)C[C@H]3C(=O)N[C@@H](C)c3ccc(-c4scnc4C)cc3)C(C)(C)C)nc2)cc1)[C@H]1CC[C@H](Nc2ncc3ccccc3n2)CC1 [Formula 144, (2S,4R)-1-((S)-3,3-dimethyl-2-(2-((1R,4R)-5-(5-(4-(N-((1r,4S)-4-(quinazolin-2-ylamino)cyclohexyl)acetamido)phenyl)pyrimidin-2-yl)-2,5-diazabicyclo[2.2.1]heptan-2-yl)acetamido)butanoyl)-4-hydroxy-N—((S)-1-(4-(4-methylthiazol-5-yl)phenyl)ethyl)pyrrolidine-2-carboxamide]
100 to 500 | 100 to 500 |  | CC(=O)N(c1ccc(-c2ccn(CC3CN(c4ccc5c(c4)C(=O)N(C4CCC(=O)NC4=O)C5=O)C3)c(=O)c2)cc1)[C@H]1CC[C@H](Nc2ncc3ccccc3n2)CC1 (stereo partly drawn) [Formula 112, N-(4-(1-((1-(2-(2,6-dioxopiperidin-3-yl)-1,3-dioxoisoindolin-5-yl)azetidin-3-yl)methyl)-2-oxo-1,2-dihydropyridin-4-yl)phenyl)-N-((1R,4R)-4-(quinazolin-2-ylamino)cyclohexyl)acetamide]
< 100 | 100 to 500 |  | CC(=O)N(c1ccc(-c2ccc(N3C[C@@H]4C[C@H]3CN4CC(=O)N[C@H](C(=O)N3C[C@H](O)C[C@H]3C(=O)N[C@@H](C)c3ccc(-c4scnc4C)cc3)C(C)(C)C)nc2)cc1)[C@H]1CC[C@H](Nc2ncc3ccccc3n2)CC1 [Formula 141, (2S,4R)-1-((S)-3,3-dimethyl-2-(2-((1S,4S)-5-(5-(4-(N-((1R,4S)-4-(quinazolin-2-ylamino)cyclohexyl)acetamido)phenyl)pyridin-2-yl)-2,5-diazabicyclo[2.2.1]heptan-2-yl)acetamido)butanoyl)-4-hydroxy-N—((S)-1-(4-(4-methylthiazol-5-yl)phenyl)ethyl)pyrrolidine-2-carboxamide]
< 100 | < 100 |  | CC(=O)N(c1ccc(-c2cnc(N3CCN(c4cc(C(C(=O)N5C[C@H](O)C[C@H]5C(=O)N[C@@H](C)c5ccc(-c6scnc6C)cc5)C(C)C)on4)CC3)nc2)cc1)[C@H]1CC[C@@H](Nc2ncc3ccccc3n2)CC1 (single isomer, unassigned) [Formula 156]
< 100 | < 100 |  | CC(=O)N(c1ccc(-c2ccc(N3CCN(c4cc(C(C(=O)N5C[C@H](O)C[C@H]5C(=O)N[C@@H](C)c5ccc(-c6scnc6C)cc5)C(C)C)on4)CC3)nc2)cc1)[C@H]1CC[C@@H](Nc2ncc3ccccc3n2)CC1 (single isomer, unassigned) [Formula 155]
< 100 | < 100 |  | CC(=O)N(c1ccc(-c2cnc(N3CCN(CC(=O)N[C@H](C(=O)N4C[C@H](O)C[C@H]4C(=O)N[C@@H](C)c4ccc(-c5scnc5C)cc4)C(C)(C)C)CC3)nc2)cc1)[C@H]1CC[C@H](Nc2ncc3ccccc3n2)CC1 [Formula 148, (2S,4R)-1-((S)-3,3-dimethyl-2-(2-(4-(5-(4-(N-((1R,4R)-4-(quinazolin-2-ylamino)cyclohexyl)acetamido)phenyl)pyrimidin-2-yl)piperazin-1-yl)acetamido)butanoyl)-4-hydroxy-N—((S)-1-(4-(4-methylthiazol-5-yl)phenyl)ethyl)pyrrolidine-2-carboxamide]
500 to 1000 | 100 to 500 |  | CC(=O)N(c1ccc(-c2ccc(CN3CCN(c4ccc5c(c4)C(=O)N(C4CCC(=O)NC4=O)C5=O)CC3)nc2)cc1)[C@H]1CC[C@H](Nc2ncc3ccccc3n2)CC1 (stereo partly drawn) [Formula 102, N-(4-(6-((4-(2-(2,6-dioxopiperidin-3-yl)-1,3-dioxoisoindolin-5-yl)piperazin-1-yl)methyl)pyridin-3-yl)phenyl)-N-((1R,4R)-4-(quinazolin-2-ylamino)cyclohexyl)acetamide]
100 to 500 | 100 to 500 |  | CC(=O)N(c1ccc(-c2cnc(OC3CN(c4ccc5c(c4)C(=O)N(C4CCC(=O)NC4=O)C5=O)C3)nc2)cc1)[C@H]1CC[C@H](Nc2ncc3ccccc3n2)CC1 (stereo partly drawn) [Formula 108, N-(4-(2-((1-(2-(2,6-dioxopiperidin-3-yl)-1,3-dioxoisoindolin-5-yl)azetidin-3-yl)oxy)pyrimidin-5-yl)phenyl)-N-((1R,4R)-4-(quinazolin-2-ylamino)cyclohexyl)acetamide]
